Test results taken from patent US20240207414A1, “DISULFIDE-BASED PRODRUG COMPOUND” (Ludwig-Maximilians-Universitat Munchen, priority 2021, published 2024).

Legend:
HeLa, A549 and MEF cells = assay: Cellular reduction assay (FIG. 3); format: cell-based, human, mouse; conditions: 100 μM, 1% vol DMSO, cells under ordinary conditions
Protocol: Assay Conditions: Cells were cultured under standard conditions (Gao, L. et al. Cell Chemical Biology 2021, 28, 1-14. https://doi.org/10.1016/j.chembiol.2020.11.007), left to adhere for 24 h, then compounds were added to 100 μM with 1% vol DMSO. Fluorescence timecourse measurements were acquired as in the chemoreductant assay, with all conditions in triplicates.
Data Representation: F(t)-F(0) is the fluorescence intensity signal increase as compared to time zero signal (fluorescence intensity immediately following compound addition, before probe activation can occur), in arbitrary units although with the same detection settings for all probes releasing the same cargo. This corresponds to reduction-triggered cargo release. “ctrf” indicates cells not treated with probes, as a negative control.

[1] = Chemical reductant assay: GSH challenge (cell-free); format: physicochemical; conditions: aq. TE buffer pH 7.4, 37° C., 6 h, GSH 0.01-10 mM
Text: (§1) This assay (see FIG. 1) examined the stability of disulfide-based reduction-triggered compounds of the invention when exposed to monothiol reductants, primarily the major physiological cellular monothiol GSH, and dithiol reductants like the disulfide reductant dithiothreitol (DTT), as evaluated in a cell-free assay, to determine whether these compounds can be useful for selective release.
(§2) Assay Conditions: A black 96-well plate with black bottom was charged with solutions of fluorophore-releasing reduction-triggered probes that are compounds of the invention (P1, P2, P3, P4 and P5) or that are not compounds of the invention and reveal the performance of prior art systems (X19) (80 μL; 25 μM in aq. TE buffer (pH 7.4) and 1.25% vol DMSO). Solutions of challenge species chosen from the monothiol glutathione (GSH, 0.1-50 mM) and the dithiol reductant dithiothreitol (DTT, 0.1-50 mM) or phosphine reductant tris-(2-carboxyethyl) phosphine (TCEP); (20 μL; 1 mM in aq. TE buffer (pH 7.4) were added and the reaction mixtures were incubated at 37° C. for 6 h while measuring fluorescence intensity over time [F(t)] using a BMG Labtech FLUOstar Omega platereader (λexc=355 nm, Δem=530 nm for PQ-OH-releasing probes X19, P1 and P2; Δexc=485 nm, Δem=530 nm for MF-OH-releasing probes P3 and P4.
(§3) Data Representation: F^max is the maximum possible fluorescence increase corresponding to complete reduction-triggered cargo release, i.e. the fluorescence intensity increase from time zero to signal plateau under TCEP incubation PQ-OH-releasing probes. F(t)/F^max(t) thus gives the timecourse measurements of fluorescence intensity, as a fraction of the maximum possible fluorescence signal. F^sat is the endpoint fluorescence intensity increase for each condition, ie. F^sat=(F(6 h)). F^sat/F^max thus gives the assay endpoint fluorescence intensity increase, as a fraction of the maximum possible fluorescence signal. In the GSH timecourse measurements shown in FIG. 1, all datasets annotated with concentrations only (0.01-10 mM) refer to GSH challenges, while datasets for TCEP positive control (100 μM) and no-reductant control (blank) are shown for comparison. The dose-response plots show F^sat/F^max for the different ratios between probe and GSH or probe and DTT concentrations, with a logarithmic horizontal scale.

[2] = Chemical reductant assay: DTT challenge (cell-free); format: physicochemical; conditions: aq. TE buffer pH 7.4, 37° C., 6 h
Text: as §1, §2, §3

HeLa cells = assay: In vitro cell viability assay P21, P22 (resazurin); format: cell-based, human; conditions: 48 h
Protocol: (§4) Assay Conditions: Cells (A549 cells for P19 and P20; HeLa cells for P21 and P22) were cultured under standard conditions (Gao, L. et al. Cell Chemical Biology 2021, 28, 1-14. https://doi.org/10.1016/j.chembiol.2020.11.007), left to adhere for 24 h, then P19, P20, P21 or P22 were added from DMSO stock solution and adjusted to 1% vol DMSO. Cells were incubated under standard conditions for 48 h, then 0.20 volume equivalents of a solution of resazurin in PBS (0.15 mg/mL) were added and incubated for 3 hours, then fluorescence (ex 544 nm, em 590 nm) was detected on a fluorescence platereader. Cell viability (%) was calculated relative to a control experiment (no compound) from the fluorescence values.

A549 cells = assay: In vitro cell viability assay P19, P20 (resazurin); format: cell-based, human; conditions: 48 h
Protocol: as §4

COc1ccc2c(c1)Oc1cc(OC(=O)N3CCC[C@@H]4CSSC[C@@H]43)ccc1C21OC(=O)c2ccccc21 (mixture of isomers) [Compound P4, 3′-methoxy-3-oxo-3H-spiro[isobenzofuran-1,9′-xanthen]-6′-yl-cis-hexahydro-[1,2]dithiino[4,5-b]pyridine-1(2H)-carboxylate]
cargo release inside cells (fluorescence signal increase over time) (HeLa, A549 and MEF cells): do not release cargo inside cells under ordinary conditions | cargo release (fluorescence) when challenged with monothiol reductant GSH [1]: do not release cargo | activation / cargo release by dithiol reductant DTT [2]: efficiently activated by dithiol-type reductants

COc1ccc2c(c1)Oc1cc(OC(=O)N3CCC[C@@H]4CSSC[C@H]43)ccc1C21OC(=O)c2ccccc21 (mixture of isomers) [Compound P3, 3′-methoxy-3-oxo-3H-spiro[isobenzofuran-1,9′-xanthen]-6′-yl-(trans)-hexahydro-[1,2]dithiino[4,5-b]pyridine-1(2H)-carboxylate]
cargo release (fluorescence) when challenged with monothiol reductant GSH [1]: do not release cargo | activation / cargo release by dithiol reductant DTT [2]: efficiently activated by dithiol-type reductants

CC[C@@]1(O)C(=O)OCc2c1cc1n(c2=O)Cc2cc3c(CN(C)C)c(OC(=O)N4CCCC5CSSC[C@@H]54)ccc3nc2-1 (mixture of isomers) [Compound P22, (R)-10-((dimethylamino)methyl)-4-ethyl-4-hydroxy-3,14-dioxo-3,4,12,14-tetrahydro-1H-pyrano[3′,4′:6,7]indolizino[1,2-b]quinolin-9-yl (trans)-hexahydro-[1,2]dithiino[4,5-b]pyridine-1(2H)-carboxylate]
tolerability in cells compared with Irinotecan (HeLa cells): equally well-tolerated in cells as the approved cancer prodrug Irinotecan | toxicity to cells compared with SN-38 (HeLa cells): significantly less toxic to cells than the parent compound

CCc1c2c(nc3ccc(OC(=O)N4CCN(C(=O)CCC(=O)N5CCN(C)CC5)[C@@H]5CSSC[C@@H]54)cc13)-c1cc3c(c(=O)n1C2)COC(=O)[C@]3(O)CC (racemic) [Compound P20, (R)-4,11-diethyl-4-hydroxy-3,14-dioxo-3,4,12,14-tetrahydro-1H-pyrano[3′,4′:6,7]indolizino[1,2-b]quinolin-9-yl (cis)-4-(4-(4-methylpiperazin-1-yl)-4-oxobutanoyl)hexahydro-[1,2]dithiino[4,5-b]pyrazine-1(2H)-carboxylate]
tolerability in cells compared with Irinotecan (A549 cells): equally well-tolerated in cells as the approved cancer prodrug Irinotecan | toxicity to cells compared with SN-38 (A549 cells): significantly less toxic to cells than the parent compound

O=C(Oc1ccc(Cl)cc1-c1nc2ccc(Cl)cc2c(=O)[nH]1)N1CCN[C@@H]2CSSC[C@H]21 (racemic) [Compound P5, 4-chloro-2-(6-chloro-4-oxo-3,4-dihydroquinazolin-2-yl)phenyl trans-hexahydro-[1,2]dithiino[4,5-b]pyrazine-1(2H)-carboxylate]
cargo release inside cells (fluorescence signal increase over time) (HeLa, A549 and MEF cells): substantially release cargo inside cells cultured under ordinary conditions | cargo release (fluorescence) when challenged with monothiol reductant GSH [1]: does release cargo very efficiently | activation / cargo release by dithiol reductant DTT [2]: unusually strong and fast response

CCc1c2c(nc3ccc(OC(=O)N4CCN[C@@H]5CSSC[C@@H]54)cc13)-c1cc3c(c(=O)n1C2)COC(=O)[C@]3(O)CC (racemic) [Compound P19, (R)-4,11-diethyl-4-hydroxy-3,14-dioxo-3,4,12,14-tetrahydro-1H-pyrano[3′,4′:6,7]indolizino[1,2-b]quinolin-9-yl (cis)-hexahydro-[1,2]dithiino[4,5-b]pyrazine-1(2H)-carboxylate]
tolerability in cells compared with Irinotecan (A549 cells): equally well-tolerated in cells as the approved cancer prodrug Irinotecan | toxicity to cells compared with SN-38 (A549 cells): significantly less toxic to cells than the parent compound
